According to patent US9340590B2 (priority 2011, dated 2016):
Positions of bridges follow the written chain, without caps; N, C: chain ends. Non-standard residues stand in square brackets, D forms with d. Residues, ends and D or L forms follow the SMILES beside them. Sar = CNCC(=O)O

What was measured:
hNav1.5 = hNav1.5 (Homo sapiens, UniProt Q14524); assay: cell-based
hNav1.7 = hNav1.7 (Homo sapiens, UniProt Q15858); assay: cell-based; details: Nav1.7 Use IC50
Sequence of hNav1.7 (Q15858 whole entry, looked up): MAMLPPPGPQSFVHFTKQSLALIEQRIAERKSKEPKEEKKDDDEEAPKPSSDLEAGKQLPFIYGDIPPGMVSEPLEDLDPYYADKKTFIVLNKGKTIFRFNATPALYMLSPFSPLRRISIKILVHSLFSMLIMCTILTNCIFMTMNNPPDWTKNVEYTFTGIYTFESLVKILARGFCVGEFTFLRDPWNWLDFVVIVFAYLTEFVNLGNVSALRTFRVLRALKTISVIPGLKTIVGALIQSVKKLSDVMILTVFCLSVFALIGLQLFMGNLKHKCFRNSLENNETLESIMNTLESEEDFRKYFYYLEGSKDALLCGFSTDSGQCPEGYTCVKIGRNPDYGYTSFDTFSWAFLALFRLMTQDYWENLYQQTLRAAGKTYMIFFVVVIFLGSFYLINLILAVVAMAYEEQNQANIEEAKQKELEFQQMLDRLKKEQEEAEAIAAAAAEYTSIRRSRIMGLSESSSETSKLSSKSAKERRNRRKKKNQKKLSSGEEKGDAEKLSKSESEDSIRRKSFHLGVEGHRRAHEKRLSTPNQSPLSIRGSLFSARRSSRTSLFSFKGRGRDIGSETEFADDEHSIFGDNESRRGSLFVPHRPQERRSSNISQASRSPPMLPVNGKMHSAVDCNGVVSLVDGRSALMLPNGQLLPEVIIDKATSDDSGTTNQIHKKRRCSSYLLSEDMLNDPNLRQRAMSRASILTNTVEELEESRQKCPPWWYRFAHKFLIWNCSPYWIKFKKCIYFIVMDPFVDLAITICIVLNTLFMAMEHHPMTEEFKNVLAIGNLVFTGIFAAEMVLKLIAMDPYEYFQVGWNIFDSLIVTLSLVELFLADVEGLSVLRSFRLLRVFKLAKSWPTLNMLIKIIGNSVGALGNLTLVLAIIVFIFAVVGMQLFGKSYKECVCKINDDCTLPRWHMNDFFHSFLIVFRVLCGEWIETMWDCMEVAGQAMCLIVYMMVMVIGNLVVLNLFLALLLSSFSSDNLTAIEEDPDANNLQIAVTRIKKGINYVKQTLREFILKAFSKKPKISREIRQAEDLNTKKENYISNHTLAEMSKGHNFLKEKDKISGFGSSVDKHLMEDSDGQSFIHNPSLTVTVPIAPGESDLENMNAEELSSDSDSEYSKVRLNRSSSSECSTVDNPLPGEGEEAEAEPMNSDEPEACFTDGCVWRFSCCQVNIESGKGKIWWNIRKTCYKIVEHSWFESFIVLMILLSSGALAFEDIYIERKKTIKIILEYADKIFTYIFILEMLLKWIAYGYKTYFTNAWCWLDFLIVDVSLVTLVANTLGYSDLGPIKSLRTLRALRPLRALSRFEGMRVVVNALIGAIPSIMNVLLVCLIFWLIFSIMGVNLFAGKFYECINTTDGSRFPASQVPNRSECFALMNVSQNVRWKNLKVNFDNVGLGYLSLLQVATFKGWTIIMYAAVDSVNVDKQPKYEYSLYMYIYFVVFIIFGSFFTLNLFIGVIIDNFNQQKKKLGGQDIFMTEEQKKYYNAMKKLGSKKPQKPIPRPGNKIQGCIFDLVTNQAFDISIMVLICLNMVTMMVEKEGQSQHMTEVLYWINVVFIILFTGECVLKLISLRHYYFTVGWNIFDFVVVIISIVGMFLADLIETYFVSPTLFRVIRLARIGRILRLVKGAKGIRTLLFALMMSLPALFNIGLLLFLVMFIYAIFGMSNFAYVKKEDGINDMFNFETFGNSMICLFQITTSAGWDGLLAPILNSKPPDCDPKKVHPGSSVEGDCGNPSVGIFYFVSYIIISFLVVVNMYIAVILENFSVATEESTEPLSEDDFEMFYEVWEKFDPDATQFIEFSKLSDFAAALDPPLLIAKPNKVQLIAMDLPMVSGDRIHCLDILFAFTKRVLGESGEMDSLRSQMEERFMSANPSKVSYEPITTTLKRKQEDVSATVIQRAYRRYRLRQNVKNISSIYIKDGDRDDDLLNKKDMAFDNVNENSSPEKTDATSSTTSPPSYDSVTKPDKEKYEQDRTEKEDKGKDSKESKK

Sequence of hNav1.5 (Q14524 whole entry, looked up): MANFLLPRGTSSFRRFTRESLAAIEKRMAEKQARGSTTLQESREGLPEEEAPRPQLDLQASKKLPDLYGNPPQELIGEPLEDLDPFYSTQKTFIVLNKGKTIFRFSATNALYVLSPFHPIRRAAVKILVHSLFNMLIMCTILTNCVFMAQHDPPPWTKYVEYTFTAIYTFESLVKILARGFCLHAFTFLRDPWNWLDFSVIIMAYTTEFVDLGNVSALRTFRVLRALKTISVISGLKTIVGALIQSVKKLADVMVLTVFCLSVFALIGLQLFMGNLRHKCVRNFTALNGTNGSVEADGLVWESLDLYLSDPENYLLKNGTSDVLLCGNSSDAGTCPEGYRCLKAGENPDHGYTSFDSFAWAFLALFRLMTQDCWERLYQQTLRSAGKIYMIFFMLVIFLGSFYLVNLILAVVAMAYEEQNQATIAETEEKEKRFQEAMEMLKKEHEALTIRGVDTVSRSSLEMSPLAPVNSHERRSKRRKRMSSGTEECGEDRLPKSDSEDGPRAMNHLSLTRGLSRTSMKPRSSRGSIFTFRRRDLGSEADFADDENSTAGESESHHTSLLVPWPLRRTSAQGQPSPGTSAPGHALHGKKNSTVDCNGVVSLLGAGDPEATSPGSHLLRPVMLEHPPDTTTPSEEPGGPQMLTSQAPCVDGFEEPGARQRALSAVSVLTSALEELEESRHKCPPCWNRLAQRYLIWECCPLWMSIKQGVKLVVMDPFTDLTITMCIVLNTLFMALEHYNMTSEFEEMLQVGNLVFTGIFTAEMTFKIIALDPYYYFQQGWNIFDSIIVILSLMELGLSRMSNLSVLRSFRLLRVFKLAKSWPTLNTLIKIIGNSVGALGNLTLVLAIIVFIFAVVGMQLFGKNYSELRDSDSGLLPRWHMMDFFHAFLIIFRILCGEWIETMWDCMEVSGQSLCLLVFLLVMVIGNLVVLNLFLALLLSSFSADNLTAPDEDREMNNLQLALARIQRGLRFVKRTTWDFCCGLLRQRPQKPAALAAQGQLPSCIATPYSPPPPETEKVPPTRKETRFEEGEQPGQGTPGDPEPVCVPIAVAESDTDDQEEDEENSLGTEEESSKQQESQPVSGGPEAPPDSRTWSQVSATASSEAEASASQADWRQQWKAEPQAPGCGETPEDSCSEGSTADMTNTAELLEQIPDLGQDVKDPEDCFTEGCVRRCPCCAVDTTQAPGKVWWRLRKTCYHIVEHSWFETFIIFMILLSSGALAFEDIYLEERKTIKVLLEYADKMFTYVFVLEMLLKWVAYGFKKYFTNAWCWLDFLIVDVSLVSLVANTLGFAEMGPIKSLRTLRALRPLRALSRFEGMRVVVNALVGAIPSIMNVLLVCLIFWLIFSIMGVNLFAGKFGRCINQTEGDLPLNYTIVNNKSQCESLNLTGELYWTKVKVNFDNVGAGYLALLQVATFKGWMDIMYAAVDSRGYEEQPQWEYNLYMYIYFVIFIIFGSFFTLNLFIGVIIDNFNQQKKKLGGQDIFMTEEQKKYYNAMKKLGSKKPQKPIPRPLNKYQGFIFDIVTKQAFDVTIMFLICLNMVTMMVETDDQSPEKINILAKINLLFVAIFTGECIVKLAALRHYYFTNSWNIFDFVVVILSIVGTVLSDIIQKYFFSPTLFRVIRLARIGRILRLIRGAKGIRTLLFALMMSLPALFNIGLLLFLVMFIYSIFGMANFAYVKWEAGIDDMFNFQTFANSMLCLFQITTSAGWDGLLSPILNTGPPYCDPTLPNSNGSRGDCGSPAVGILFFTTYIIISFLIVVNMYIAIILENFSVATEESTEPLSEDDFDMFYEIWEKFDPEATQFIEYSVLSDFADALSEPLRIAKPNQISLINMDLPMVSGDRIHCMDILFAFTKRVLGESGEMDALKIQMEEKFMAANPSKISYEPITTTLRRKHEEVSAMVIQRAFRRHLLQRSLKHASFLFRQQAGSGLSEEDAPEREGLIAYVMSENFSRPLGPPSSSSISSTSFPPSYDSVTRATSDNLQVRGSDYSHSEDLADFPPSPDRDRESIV

Row | Structure (SMILES) | IC50 (hNav1.5) [nM] | IC50 (hNav1.7) [nM]
1 | CC[C@H](C)[C@@H]1NC(=O)[C@@H]2CSSC[C@@H]3NC(=O)[C@H](C(C)C)NC(=O)[C@H](CC(C)C)NC(=O)[C@H](CC(N)=O)NC(=O)[C@@H]4CCCN4C(=O)[C@H](CCCNC(=N)N)NC(=O)[C@H](CSSC[C@H](NC(=O)[C@@H](N)CC(=O)O)C(=O)N[C@@H](CC(C)C)C(=O)NCC(=O)N(C)CC(=O)N[C@@H](Cc4ccccc4)C(=O)N[C@@H](CCCNC(=N)N)C(=O)N[C@@H](CCCCN)C(=O)N2)NC(=O)[C@H](CSSC[C@@H](C(=O)N[C@@H](CCCCN)C(=O)N[C@@H](Cc2ccc(O)cc2)C(=O)N[C@H](C(=O)N[C@@H](Cc2ccccc2)C(N)=O)C(C)C)NC(=O)[C@H](Cc2c[nH]c4ccccc24)NC(=O)[C@H](CCCCN)NC(=O)[C@H](Cc2c[nH]cn2)NC(=O)[C@H]([C@@H](C)O)NC(=O)[C@H](CCCNC(=N)N)NC(=O)[C@H](CO)NC3=O)NC(=O)[C@H](CCCCN)NC(=O)[C@H](CC(=O)O)NC(=O)[C@H](CC(N)=O)NC(=O)[C@H](CC(=O)O)NC(=O)[C@@H]2CCCN2C1=O [[Sar5;Phe6]GpTx-1(1-34)] (H-DCLG[Sar]FRKCIPDNDKCCRPNLVCSRTHKWCKYVF-NH2; disulfide 2-17, 9-23, 16-30) | > 10000 | 25
2 | CC[C@H](C)[C@@H]1NC(=O)[C@@H]2CSSC[C@@H]3NC(=O)[C@H](C(C)C)NC(=O)[C@H](CC(C)C)NC(=O)[C@H](CC(N)=O)NC(=O)[C@@H]4CCCN4C(=O)[C@H](CCCNC(=N)N)NC(=O)[C@H](CSSC[C@H](NC(=O)[C@@H](N)CC(=O)O)C(=O)N[C@@H](CC(C)C)C(=O)NCC(=O)N[C@@H](CO)C(=O)N[C@@H](Cc4ccccc4)C(=O)N[C@@H](CCCNC(=N)N)C(=O)N[C@@H](CCCCN)C(=O)N2)NC(=O)[C@H](CSSC[C@@H](C(=O)N[C@@H](CCCCN)C(=O)N[C@@H](Cc2ccc(O)cc2)C(=O)N[C@H](C(=O)N[C@@H](Cc2ccccc2)C(N)=O)C(C)C)NC(=O)[C@H](Cc2c[nH]c4ccccc24)NC(=O)[C@H](CCCCN)NC(=O)[C@H](Cc2c[nH]cn2)NC(=O)[C@H]([C@@H](C)O)NC(=O)[C@H](CCCNC(=N)N)NC(=O)[C@H](CO)NC3=O)NC(=O)[C@H](CCCCN)NC(=O)[C@H](CC(=O)O)NC(=O)[C@H](CC(N)=O)NC(=O)[C@H](CC(=O)O)NC(=O)[C@@H]2CCCN2C1=O [[Ser5;Phe6]GpTx-1(1-34)] (H-DCLGSFRKCIPDNDKCCRPNLVCSRTHKWCKYVF-NH2; disulfide 2-17, 9-23, 16-30) | > 10000 | 24
3 | CC[C@H](C)[C@@H]1NC(=O)[C@@H]2CSSC[C@@H]3NC(=O)[C@H](C(C)C)NC(=O)[C@H](CC(C)C)NC(=O)[C@H](CC(N)=O)NC(=O)[C@@H]4CCCN4C(=O)[C@H](CCCNC(=N)N)NC(=O)[C@H](CSSC[C@H](NC(=O)[C@@H](N)CC(=O)O)C(=O)N[C@@H](CC(C)C)C(=O)NCC(=O)N[C@@H](C(C)(C)C)C(=O)N[C@@H](CC(C)C)C(=O)N[C@@H](CCCNC(=N)N)C(=O)N[C@@H](CCCCN)C(=O)N2)NC(=O)[C@H](CSSC[C@@H](C(=O)N[C@@H](CCCCN)C(=O)N[C@@H](Cc2ccc(O)cc2)C(=O)N[C@H](C(=O)N[C@@H](Cc2ccccc2)C(N)=O)C(C)C)NC(=O)[C@H](Cc2c[nH]c4ccccc24)NC(=O)[C@H](CCCCN)NC(=O)[C@H](Cc2c[nH]cn2)NC(=O)[C@H]([C@@H](C)O)NC(=O)[C@H](CCCNC(=N)N)NC(=O)[C@H](CO)NC3=O)NC(=O)[C@H](CCCCN)NC(=O)[C@H](CC(=O)O)NC(=O)[C@H](CC(N)=O)NC(=O)[C@H](CC(=O)O)NC(=O)[C@@H]2CCCN2C1=O [[Tle5;Leu6]GpTx-1(1-34)] | > 10000 | 17
4 | CC[C@H](C)[C@@H]1NC(=O)[C@@H]2CSSC[C@@H]3NC(=O)[C@H](Cc4c[nH]c5ccccc45)NC(=O)[C@H](CC(C)C)NC(=O)[C@H](CC(N)=O)NC(=O)[C@@H]4CCCN4C(=O)[C@H](CCCNC(=N)N)NC(=O)[C@H](CSSC[C@H](NC(=O)[C@@H](N)CC(=O)O)C(=O)N[C@@H](CC(C)C)C(=O)NCC(=O)N[C@@H](Cc4ccccc4)C(=O)N[C@@H](CCSC)C(=O)N[C@@H](CCCNC(=N)N)C(=O)N[C@@H](CCCCN)C(=O)N2)NC(=O)[C@H](CSSC[C@@H](C(=O)N[C@@H](CCCCN)C(=O)N[C@@H](Cc2ccc(O)cc2)C(=O)N[C@H](C(=O)N[C@@H](Cc2ccccc2)C(N)=O)C(C)C)NC(=O)[C@H](Cc2c[nH]c4ccccc24)NC(=O)[C@H](CCCCN)NC(=O)[C@H](Cc2cnc[nH]2)NC(=O)[C@H]([C@@H](C)O)NC(=O)[C@H](CCCNC(=N)N)NC(=O)[C@H](CO)NC3=O)NC(=O)[C@H](CCCCN)NC(=O)[C@H](CC(=O)O)NC(=O)[C@H](CC(N)=O)NC(=O)[C@H](CC(=O)O)NC(=O)[C@@H]2CCCN2C1=O [[Trp22]GpTx-1(1-34)] (H-DCLGFMRKCIPDNDKCCRPNLWCSRTHKWCKYVF-NH2; disulfide 2-17, 9-23, 16-30) | 4780 | 39
5 | CC[C@H](C)[C@@H]1NC(=O)[C@@H]2CSSC[C@@H]3NC(=O)[C@H](C(C)C)NC(=O)[C@H](CC(C)C)NC(=O)[C@H](CC(N)=O)NC(=O)[C@@H]4CCCN4C(=O)[C@H](CCCNC(=N)N)NC(=O)[C@H](CSSC[C@H](NC(=O)[C@@H](N)CC(=O)O)C(=O)N[C@@H](CC(C)C)C(=O)NCC(=O)N[C@@H](Cc4ccccc4)C(=O)N[C@@H](CCSC)C(=O)N[C@@H](CCCNC(=N)N)C(=O)N[C@@H](CCCCN)C(=O)N2)NC(=O)[C@H](CSSC[C@@H](C(=O)N[C@@H](CCCCN)C(=O)N[C@@H](Cc2ccc(O)cc2)C(=O)N[C@@H](Cc2c[nH]c4ccccc24)C(=O)N[C@@H](Cc2ccccc2)C(N)=O)NC(=O)[C@H](Cc2c[nH]c4ccccc24)NC(=O)[C@H](CCCCN)NC(=O)[C@H](Cc2c[nH]cn2)NC(=O)[C@H]([C@@H](C)O)NC(=O)[C@H](CCCNC(=N)N)NC(=O)[C@H](CO)NC3=O)NC(=O)[C@H](CCCCN)NC(=O)[C@H](CC(=O)O)NC(=O)[C@H](CC(N)=O)NC(=O)[C@H](CC(=O)O)NC(=O)[C@@H]2CCCN2C1=O [[Trp33]GpTx-1(1-34)] (H-DCLGFMRKCIPDNDKCCRPNLVCSRTHKWCKYWF-NH2; disulfide 2-17, 9-23, 16-30) | 2350 | 18
6 | CC[C@H](C)[C@@H]1NC(=O)[C@@H]2CSSC[C@@H]3NC(=O)[C@H](Cc4ccc(O)cc4)NC(=O)[C@H](CC(C)C)NC(=O)[C@H](CC(N)=O)NC(=O)[C@@H]4CCCN4C(=O)[C@H](CCCNC(=N)N)NC(=O)[C@H](CSSC[C@H](NC(=O)[C@@H](N)CC(=O)O)C(=O)N[C@@H](CC(C)C)C(=O)NCC(=O)N[C@@H](Cc4ccccc4)C(=O)N[C@@H](CCSC)C(=O)N[C@@H](CCCNC(=N)N)C(=O)N[C@@H](CCCCN)C(=O)N2)NC(=O)[C@H](CSSC[C@@H](C(=O)N[C@@H](CCCCN)C(=O)N[C@@H](Cc2ccc(O)cc2)C(=O)N[C@H](C(=O)N[C@@H](Cc2ccccc2)C(N)=O)C(C)C)NC(=O)[C@H](Cc2c[nH]c4ccccc24)NC(=O)[C@H](CCCCN)NC(=O)[C@H](Cc2c[nH]cn2)NC(=O)[C@H]([C@@H](C)O)NC(=O)[C@H](CCCNC(=N)N)NC(=O)[C@H](CO)NC3=O)NC(=O)[C@H](CCCCN)NC(=O)[C@H](CC(=O)O)NC(=O)[C@H](CC(N)=O)NC(=O)[C@H](CC(=O)O)NC(=O)[C@@H]2CCCN2C1=O [[Tyr22]GpTx-1(1-34)] (H-DCLGFMRKCIPDNDKCCRPNLYCSRTHKWCKYVF-NH2; disulfide 2-17, 9-23, 16-30) | > 10000 | 18
